Assay results published in patent US4596828A, “[(2-hydroxy-5-alkoxyphenyl)methylthio]phenylmethanol and derivatives thereof useful as anti-inflammatory agents” (Merck & Co., Inc., priority 1985, dated 1986).

Tested on: inflammatory responses elicited by topically applied phorbol myristate acetate (PMA) or arachidonic acid (AA) in mouse ears
Test: Topical mouse ear assay (TME): edema measured by wet weight after topical PMA or AA
Type: in vivo
Details: mean, N=5 mice/group
Description: The topical mouse ear assay (TME) was used to evaluate the novel compounds of the present invention for its effect on inflammatory responses elicited by topically applied phorbol myristate acetate (PMA) or topically applied archidonic acid (AA).
Method: The right ears of mice (5 mice per group) were treated topically with either […] or 1000 μg AA alone or with the test compound in 25 μl of vehicle. The vehicle was water/pyridine/acetone (1:2:97). A control group of mice received the vehicle only. The mice were allowed food and water ad libitum during the treatment period; 2 hours for AA and 4 hours for PMA. The mice were sacrificed by cervical dislocation and a 6 mm diameter disc of tissue punched from both the treated and untreated ears. The tissue biopsies were immediately weighed and the weight increase of the treated ear relative to the weight of the untreated ear determined.
All of the data are expressed as the mean ±SEM, N=5 mice/group.

C[C@@H]1C[C@H]2[C@@H]3CCC4=CC(=O)C=C[C@]4(C)[C@@]3(F)[C@@H](O)C[C@]2(C)[C@@]1(O)C(=O)CO [Dexamethasone, reference compound]
Edema (% inhibition) (dosage 5 μg): 60%

COc1ccc(O)c(CSc2ccccc2CO)c1 [Compound A, 2-[2-(Hydroxymethyl)phenylthiomethyl]-4-methoxyphenol]
Edema (% inhibition) (dosage 30 μg): 12%
Edema (% inhibition) (dosage 50 μg): 16%
Edema (% inhibition) (dosage 200 μg): 55%
Edema (% inhibition) (dosage 300 μg): 63%

COc1ccc2c(c1)c(CC(=O)O)c(C)n2C(=O)c1ccc(Cl)cc1 [Indomethacin, reference compound]
Edema (% inhibition) (dosage 150 μg): 51%
